Laboratory results reported in PubChem BioAssay AID280 (DTP/NCI, 2004).
“And” between values parts separate entries of the source, which are not always exact repeats. Identical values can stand only once. Inconclusive results and toxic doses are left out.

Tested on: nude mice, LOX melanoma ip, survival T/C
Assay: NCI In Vivo Anticancer Drug Screen. Data for tumor model Human Amelanotic Melanoma (LOX) (intraperitoneal) in NU/NU BALB/C (nude) mice
Settings: endpoint: median survival time, higher = longer survival
Method: The antitumor activity of compounds was measured in mice bearing transplantable tumors. Survival or tumor size were measured and the results are expressed as the measurement made in the treated group (T) divided by the measurement made in the vehicle treated control group (C). The tumor model used in this assay is Human Amelanotic Melanoma (LOX) (intraperitoneal) in NU/NU BALB/C (nude) mice

[1] = dose: 25.0 mg/kg/injection, schedule: Q04DX003 (ip), vehicle: saline with Tween-80
[2] = dose: 50.0 mg/kg/injection, schedule: Q04DX003 (ip), vehicle: saline with Tween-80
[3] = dose: 100.0 mg/kg/injection, schedule: Q04DX003 (ip), vehicle: saline with Tween-80
[4] = dose: 6.25 mg/kg/injection, schedule: Q04DX003 (ip), vehicle: suspension in saline
[5] = dose: 25.0 mg/kg/injection, schedule: Q04DX003 (ip), vehicle: suspension in saline
[6] = dose: 50.0 mg/kg/injection, schedule: Q04DX003 (ip), vehicle: suspension in saline
[7] = dose: 100.0 mg/kg/injection, schedule: Q04DX003 (ip), vehicle: suspension in saline
[8] = dose: 50.0 mg/kg/injection, schedule: Q04DX003 (ip), vehicle: saline
[9] = dose: 100.0 mg/kg/injection, schedule: Q04DX003 (ip), vehicle: saline
[10] = dose: 200.0 mg/kg/injection, schedule: Q04DX003 (ip), vehicle: saline
[11] = dose: 200.0 mg/kg/injection, schedule: Q04DX003 (ip), vehicle: saline with Tween-80
[12] = dose: 400.0 mg/kg/injection, schedule: Q04DX003 (ip), vehicle: saline with Tween-80

Q: How did the T/C (dose: 6.25 mg/kg/injection, schedule: Q01DX009 (ip), vehicle: saline with Tween-80) turn out when `O=C(CCCN1CCC(C(O)c2ccc(F)cc2)CC1)c1ccc(F)cc1` (centres undefined) was run?
A: 95 % of control

Q: And the T/C (dose: 12.5 mg/kg/injection, schedule: Q01DX009 (ip), vehicle: saline with Tween-80)?
A: 107 % of control

Q: What about the T/C (dose: 12.5 mg/kg/injection, schedule: Q01DX009 (oral), vehicle: saline with Tween-80) of the same compound?
A: 109 % of control

Q: What about the T/C (dose: 25.0 mg/kg/injection, schedule: Q01DX009 (ip), vehicle: saline with Tween-80) of the same compound?
A: 101 % of control

Q: And the T/C (dose: 25.0 mg/kg/injection, schedule: Q01DX009 (oral), vehicle: saline with Tween-80)?
A: 99 % of control

Q: What about the T/C (dose: 50.0 mg/kg/injection, schedule: Q01DX009 (ip), vehicle: saline with Tween-80) of the same compound?
A: 115 % of control

Q: What about the T/C (dose: 50.0 mg/kg/injection, schedule: Q01DX009 (oral), vehicle: saline with Tween-80) of the same compound?
A: 107 % of control

Q: And the T/C (dose: 100.0 mg/kg/injection, schedule: Q01DX009 (oral), vehicle: saline with Tween-80)?
A: 107 % of control

Q: Which results are given for `NNC(=O)c1ccncc1`?
A: T/C (dose: 18.75 mg/kg/injection, schedule: Q04DX003 (ip), vehicle: saline): 110 % of control; T/C (dose: 37.5 mg/kg/injection, schedule: Q04DX003 (ip), vehicle: saline): 109 % of control

Q: What does the source list for `Cc1ccc(C(=Nc2ccccc2)N=P(c2ccccc2)(c2ccccc2)c2ccccc2)cc1`?
A: T/C (dose: 12.5 mg/kg/injection, schedule: Q04DX003 (ip), vehicle: saline with Tween-80): 106 % of control; T/C [1]: 115 % of control; T/C [2]: 119 % of control; T/C [3]: 104 % of control

Q: What does the source list for `CC(=O)Nc1ccc(Nc2ccc(C(=C3C=CC(=[N+](C)CCC#N)C=C3)c3ccc(N(C)CCC#N)cc3)cc2)cc1`?
A: T/C [4]: 101 % of control; T/C (dose: 12.5 mg/kg/injection, schedule: Q04DX003 (ip), vehicle: suspension in saline): 111 % of control; T/C [5]: 116 % of control; T/C (dose: 30.0 mg/kg/injection, schedule: Q04DX003 (ip), vehicle: suspension in saline): 120 % of control; T/C [6]: 111 % of control and 121 % of control; T/C (dose: 83.0 mg/kg/injection, schedule: Q04DX003 (ip), vehicle: suspension in saline): 110 % of control; T/C [7]: 124 % of control

Q: `O=NNc1ccc2cccnc2n1` was tested. Which T/C (dose: 9.38 mg/kg/injection, schedule: Q04DX003 (ip), vehicle: water) did it give?
A: 99 % of control

Q: What about the T/C (dose: 18.75 mg/kg/injection, schedule: Q04DX003 (ip), vehicle: water) of the same compound?
A: 120 % of control

Q: And the T/C (dose: 37.5 mg/kg/injection, schedule: Q04DX003 (ip), vehicle: water)?
A: 157 % of control

Q: And the T/C (dose: 75.0 mg/kg/injection, schedule: Q04DX003 (ip), vehicle: water)?
A: 192 % of control

Q: What about the T/C (dose: 150.0 mg/kg/injection, schedule: Q04DX003 (ip), vehicle: water) of the same compound?
A: 214 % of control

Q: With `COc1ccc(/C=C/C(=O)c2ccccc(=O)c2O)c(OC)c1OC` as the compound, how does the T/C (dose: 6.85 mg/kg/injection, schedule: Q04DX003 (ip), vehicle: Klucel (hydroxypropylcellulose) (HPC)) read?
A: 100 % of control

Q: What about the T/C (dose: 13.7 mg/kg/injection, schedule: Q04DX003 (ip), vehicle: Klucel (hydroxypropylcellulose) (HPC)) of the same compound?
A: 100 % of control

Q: And the T/C (dose: 27.5 mg/kg/injection, schedule: Q04DX003 (ip), vehicle: Klucel (hydroxypropylcellulose) (HPC))?
A: 110 % of control

Q: What about the T/C (dose: 55.0 mg/kg/injection, schedule: Q04DX003 (ip), vehicle: Klucel (hydroxypropylcellulose) (HPC)) of the same compound?
A: 104 % of control

Q: What about the T/C (dose: 110.0 mg/kg/injection, schedule: Q04DX003 (ip), vehicle: Klucel (hydroxypropylcellulose) (HPC)) of the same compound?
A: 110 % of control

Q: For `CNC(=O)c1cccc2c(Nc3ccc(NS(C)(=O)=O)cc3OC)c3cccc(C)c3nc12`, which T/C [4] is on record?
A: 121 % of control

Q: And the T/C (dose: 15.0 mg/kg/injection, schedule: Q04DX003 (ip), vehicle: suspension in saline)?
A: 158 % of control

Q: And the T/C [5]?
A: 178 % of control

Q: And the T/C (dose: 41.66 mg/kg/injection, schedule: Q04DX003 (ip), vehicle: suspension in saline)?
A: 170 % of control

Q: And the T/C (dose: 69.44 mg/kg/injection, schedule: Q04DX003 (ip), vehicle: suspension in saline)?
A: 161 % of control

Q: With `COc1cc2c(c(OC)c1OC)-c1cccc(=O)cc1C(NC(C)=O)CC2` (centres undefined) as the compound, how does the T/C (dose: 12.5 mg/kg/injection, schedule: Q04DX003 (ip), vehicle: saline) read?
A: 104 % of control

Q: And the T/C (dose: 25.0 mg/kg/injection, schedule: Q04DX003 (ip), vehicle: saline)?
A: 122 % of control

Q: What about the T/C [8] of the same compound?
A: 110 % of control

Q: What about the T/C [9] of the same compound?
A: 106 % of control

Q: What about the T/C [10] of the same compound?
A: 103 % of control

Q: What does the source list for `CN1COc2c(n(C)c(=O)[nH]c2=O)C1`?
A: T/C [8]: 96 % of control; T/C [6]: 102 % of control; T/C [9]: 91 % of control; T/C [7]: 104 % of control; T/C [10]: 104 % of control; T/C (dose: 200.0 mg/kg/injection, schedule: Q04DX003 (ip), vehicle: suspension in saline): 122 % of control; T/C (dose: 400.0 mg/kg/injection, schedule: Q04DX003 (ip), vehicle: saline): 110 % of control; T/C (dose: 400.0 mg/kg/injection, schedule: Q04DX003 (ip), vehicle: suspension in saline): 108 % of control; T/C (dose: 800.0 mg/kg/injection, schedule: Q04DX003 (ip), vehicle: saline): 120 % of control; T/C (dose: 800.0 mg/kg/injection, schedule: Q04DX003 (ip), vehicle: suspension in saline): 108 % of control

Q: With `CC(O)CCC(=O)c1ccoc1` (centres undefined) as the compound, how does the T/C (dose: 10.8 mg/kg/injection, schedule: Q01DX001 (ip), vehicle: propolene glycol) read?
A: 103 % of control and 118 % of control and 119 % of control

Q: And the T/C (dose: 30.0 mg/kg/injection, schedule: Q01DX001 (ip), vehicle: propolene glycol)?
A: 117 % of control

Q: For `CNC(=O)OCc1nc(SC)n(C)c1COC(=O)NC`, which T/C (dose: 51.2 mg/kg/injection, schedule: Q04DX003 (ip), vehicle: water) is on record?
A: 179 % of control

Q: What about the T/C (dose: 57.5 mg/kg/injection, schedule: Q04DX003 (ip), vehicle: saline) of the same compound?
A: 156 % of control

Q: And the T/C (dose: 76.7 mg/kg/injection, schedule: Q04DX003 (ip), vehicle: water)?
A: 229 % of control

Q: And the T/C (dose: 115.0 mg/kg/injection, schedule: Q04DX003 (ip), vehicle: saline)?
A: 234 % of control

Q: What about the T/C (dose: 115.0 mg/kg/injection, schedule: Q04DX003 (ip), vehicle: water) of the same compound?
A: 354 % of control

Q: Which T/C [2] does the source give for `CC(=O)/C(=C\c1ccc(/C=C(\C(C)=O)C(=O)CCN(C)C)cc1)C(=O)CCN(C)C` here?
A: 94 % of control

Q: What about the T/C [3] of the same compound?
A: 100 % of control

Q: And the T/C [11]?
A: 105 % of control

Q: And the T/C [12]?
A: 107 % of control

Q: And the T/C (dose: 800.0 mg/kg/injection, schedule: Q04DX003 (ip), vehicle: saline with Tween-80)?
A: 111 % of control

Q: With `COc1ccc2c(ccc3oc([N+](=O)[O-])cc32)c1` as the compound, how does the T/C (dose: 100.0 mg/kg/injection, schedule: Q04DX003 (ip), vehicle: Klucel (hydroxypropylcellulose) (HPC)) read?
A: 121 % of control

Q: And the T/C (dose: 120.0 mg/kg/injection, schedule: Q04DX003 (ip), vehicle: Klucel (hydroxypropylcellulose) (HPC))?
A: 170 % of control

Q: And the T/C (dose: 400.0 mg/kg/injection, schedule: Q04DX003 (ip), vehicle: Klucel (hydroxypropylcellulose) (HPC))?
A: 86 % of control

Q: For `NC(Cc1ccc(N(CCCl)Cc2ccccc2)cc1)C(=O)O` (centres undefined), which T/C [1] is on record?
A: 107 % of control

Q: And the T/C [2]?
A: 124 % of control

Q: And the T/C [11]?
A: 158 % of control and 163 % of control

Q: With `CCCCOCN(COCCCC)C12CC3CC(CC(C3)C1)C2` as the compound, how does the T/C [2] read?
A: 106 % of control

Q: What about the T/C [3] of the same compound?
A: 97 % of control

Q: And the T/C [11]?
A: 114 % of control

Q: What about the T/C [12] of the same compound?
A: 120 % of control

Q: With `Nc1nc2n[nH]nc2c(=O)[nH]1` as the compound, how does the T/C (dose: 37.5 mg/kg/injection, schedule: Q04DX003 (ip), vehicle: suspension in saline) read?
A: 164 % of control

Q: What about the T/C (dose: 75.0 mg/kg/injection, schedule: Q04DX003 (ip), vehicle: suspension in saline) of the same compound?
A: 177 % of control

Q: What about the T/C (dose: 150.0 mg/kg/injection, schedule: Q04DX003 (ip), vehicle: suspension in saline) of the same compound?
A: 217 % of control

Q: What about the T/C (dose: 300.0 mg/kg/injection, schedule: Q04DX003 (ip), vehicle: suspension in saline) of the same compound?
A: 251 % of control

Q: For `CO[C@@H]1C2=CC=CC=C[C@H]2n2c(=O)n(C)c(=O)n21`, which T/C (dose: 37.5 mg/kg/injection, schedule: Q04DX003 (ip), vehicle: other) is on record?
A: 104 % of control

Q: And the T/C (dose: 75.0 mg/kg/injection, schedule: Q04DX003 (ip), vehicle: other)?
A: 105 % of control

Q: And the T/C (dose: 150.0 mg/kg/injection, schedule: Q04DX003 (ip), vehicle: other)?
A: 102 % of control

Q: How did the T/C (dose: 150.0 mg/kg/injection, schedule: Q04DX003 (ip), vehicle: saline with Tween-80) turn out when `CCN(CC)c1ccc2[nH]c3c(C(N)=O)cc(=O)c(=O)c=3oc2c1` was run?
A: 110 % of control

Q: And the T/C (dose: 300.0 mg/kg/injection, schedule: Q04DX003 (ip), vehicle: saline with Tween-80)?
A: 96 % of control

Q: How did the T/C (dose: 25.0 mg/kg/injection, schedule: Q04DX003 (ip), vehicle: sodium bicarbonate) turn out when `O=C(O)Cc1cccc2c(=O)cc(-c3ccccc3)oc12` was run?
A: 108 % of control

Q: What about the T/C (dose: 50.0 mg/kg/injection, schedule: Q04DX003 (ip), vehicle: sodium bicarbonate) of the same compound?
A: 119 % of control
